Source: publication PMC9611727, “Optimization of a Novel Mandelamide-Derived Pyrrolopyrimidine Series of PERK Inhibitors” (Pharmaceutics, 2022)

How the values were obtained:
Assay type in all cases: in vitro ADME
[1] = Plasma protein binding (RED dialysis), dog; settings: male, beagle, pH 7.4
Excerpt: Verapamil hydrochloride and tamoxifen were obtained from Sigma-Aldrich. […]
Pooled mixed gender human donor plasma, Sprague Dawley male rat plasma, CD-1 (ICR) male mouse plasma and male beagle dog plasma were obtained from Bioreclamation Inc. (Westbury, NY). Reusable Teflon base plate, RED Device inserts, and BupH Phosphate Buffered Saline packs (0.1 M sodium phosphate and 0.15 M sodium chloride when dissolved in 0.5 L water) were obtained from Thermo Scientific (Waltham, MA). Propranolol was obtained from Sigma-Aldrich (St. Louis, MO). All solvents were obtained from commercial sources and used without further purification.
Frozen plasma was thawed and the pH of plasma and BupH phosphate buffered saline was adjusted to 7.4 prior to dialysis. Into each well of a reusable Teflon 48-well base plate a RED insert was placed open end up. Ten microliters (10 µL) of the test compound (0.1 mM in acetonitrile/water, 1:1 v/v) was added to 990 µL of plasma to achieve 1 µM final concentration. The spiked plasma (200 µL) was added to the sample chamber, which is indicated by the red retainer ring (donor side). To the other side (receiver side), 350 µL of BupH phosphate buffered saline (pH 7.4) was added. A buffer-to-buffer assay was also performed to measure equilibrium across the membrane in the absence of plasma protein.
Propranolol was used as a positive control. All samples were prepared in triplicate. The RED device base plate was then sealed and placed in a shaking incubator set to maintain 37°C and 200 rpm for four hours.
After incubation, 100 µL of each sample was combined with an equal volume of either plasma or buffer, to create a similar matrix for all samples. Blank buffer was added to plasma samples, and vice versa. Samples from the incubation, along with the original compound-spiked plasma samples, were prepared for analysis in the same manner. Protein precipitation by addition of two parts of ice-cold acetonitrile to one part of reaction volume was carried out. To ensure complete protein precipitation samples were sealed and placed overnight at 4°C. The next morning samples were centrifuged at 3,600 rpm for 15 minutes. The supernatants (70 µL) were supplemented with an equal volume of internal standard solution (0.15 µM verapamil in water) and subjected to LC-MS/MS analysis.

[2] = Metabolic clearance in hepatocytes, human; settings: male, pooled cryopreserved human hepatocytes (ten donors), read-out: Hepatocyte Clearance (t1/2 min) Human
Description: (§1) Metabolic Clearance in Hepatocytes
(§2) Testosterone was obtained from Cerilliant (Round Rock, TX). 7-Hydroxycoumarin was obtained from Sigma-Aldrich (St.
(§3) Louis, MO). Ten-donor male pooled cryopreserved human hepatocytes, cryopreserved male Sprague Dawley rat hepatocytes, cryopreserved male ICR/CD-1 mouse hepatocytes, cryopreserved male beagle dog hepatocytes, In VitroGro HI Medium (Incubation), and InVitroGro HT Medium (Thawing) were obtained from Bioreclamation IVT (Baltimore, MD). All solvents were obtained from commercial sources and used without further purification.Test compound was prepared as a 1 mM stock solution in DMSO. A 2 µM solution of test compound and testosterone was prepared (7 - hydroxycoumarin was prepared at 20 µM) in In VitroGro HI Medium (Incubation). These solutions were placed in a sterile incubator set to maintain 37°C, 5% CO2, and 98% humidity to pre-warm. Cryopreserved hepatocytes were prepared at a concentration of 2 x 10^6 living cells/mL in incubation media and placed in the incubator to pre-warn. The compound solutions and hepatocyte mixtures were then combined at a ratio of 1:1 (v:v). The final volume of the reaction mixture was 750 µL, containing 1 µM test compound and 1 x 10^6 cells/mL. The reaction mixture was placed in the incubator on a plate shaker. After 0, 15, 30, 60, 90, and 120 minutes of incubation, 100 µL of reaction mixtures were removed from the incubation plate and mixed with 150 µL of ice-cold acetonitrile in a designated well of a 96-well crash plate. The 96-well crash plate was placed on ice for 15 min, and samples were centrifuged (3,600 rpm, 10 min, 4 °C) to precipitate protein.
(§4) The supernatants were diluted 1:1 (v/v) with water containing tolbutamide, (internal standard for positive and negative modes, respectively) in a 96-well shallow injection plate. This plate was sealed for LC-MS analysis. All measurements

[3] = Metabolic clearance in hepatocytes, rat; settings: male, Sprague Dawley, cryopreserved rat hepatocytes, read-out: Hepatocyte Clearance (t1/2 min) Rat
Description: as §1, §2, §3, §4

[4] = Metabolic clearance in hepatocytes, mouse; settings: male, ICR/CD-1, cryopreserved mouse hepatocytes, read-out: Hepatocyte Clearance (t1/2 min) Mouse
Description: as §1, §2, §3, §4

| SMILES | fraction unbound at 4 h, 1 µM [1] | half-life at 1 µM [2] | half-life at 1 µM [3] | half-life at 1 µM [4] |
| --- | --- | --- | --- | --- |
| Cc1nc(N)c2c(-c3ccc(NC(=O)[C@H](O)c4cccc(F)c4)cc3C)cn(C)c2n1 [Compound 24] | 0.03 | 12.2 h | 0.383 h | 0.517 h |
| Cc1nc(N)c2c(-c3ccc(NC(=O)[C@H](O)c4cccc(C(F)(F)F)c4)cc3C)cn(C)c2n1 [Compound 26] | 0.005 | 3.23 h | 2.77 h | 1.97 h |
| Cc1nc(N)c2c(-c3ccc(NC(=O)[C@H](O)c4cc(F)cc(C(F)(F)F)c4)cc3C)cn(C)c2n1 [Compound 39] | < 0.001 | 4.62 h | 4.2 h | 5.33 h |
| Cc1nc(N)c2c(-c3ccc(NC(=O)[C@H](O)c4cccc(F)c4)c(F)c3C)cn(C)c2n1 [Compound 65] | 0.013 | 6.5 h | 0.367 h | 1.07 h |
| Cc1nc(N)c2c(-c3cc(F)c(NC(=O)[C@H](O)c4cccc(F)c4)cc3C)cn(C)c2n1 [Compound 66] | 0.018 | 5.97 h | 0.217 h | 2.78 h |
| Cc1nc(N)c2c(-c3ccc(NC(=O)[C@H](O)c4cccc(F)c4)c(F)c3F)cn(C)c2n1 [Compound 70, (R)-N-(4-(4-amino-2,7-dimethyl-7H-pyrrolo[2,3-d]pyrimidin-5-yl)-2,3-difluorophenyl)-2-(3-fluorophenyl)-2-hydroxyacetamide] | 0.006 | 6 h | 0.25 h | 0.75 h |

Next, values leading:

| fraction unbound at 4 h, 1 µM [1] | half-life at 1 µM [2] | half-life at 1 µM [3] | half-life at 1 µM [4] | SMILES |
| --- | --- | --- | --- | --- |
| 0.017 | 13 h | 0.45 h | 1.03 h | Cc1nc(N)c2c(-c3ccc(NC(=O)[C@H](O)c4cccc(Cl)c4)cc3C)cn(C)c2n1 [Compound 28] |
| 0.016 | 14.9 h | 2.02 h | 13.4 h | Cc1nc(N)c2c(-c3ccc(NC(=O)[C@H](O)c4cc(F)cc(F)c4)cc3C)cn(C)c2n1 [Compound 38] |
| 0.012 | 1.13 h | 0.267 h | 0.4 h | Cc1cc(F)cc([C@@H](O)C(=O)Nc2ccc(-c3cn(C)c4nc(C)nc(N)c34)c(C)c2)c1 [Compound 41] |
| 0.004 | 9.27 h | 0.417 h | 0.883 h | Cc1nc(N)c2c(-c3ccc(NC(=O)[C@H](O)c4cccc(Cl)c4)cc3F)cn(C)c2n1 [Compound 48] |
